Source: ChEMBL document CHEMBL1201862, “PubChem BioAssay data set” (2004)
The source made the active and inactive calls.

Columns and labels:
[1] = miR-122 activators in hepatoma reporter cells, dose response, cell-based, Huh7 psiCHECK-miR122, Renilla luciferase, cherry-picked (AID 651956); format: functional;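 note: huh7 hepatoma cells stably carrying a psiCHECK-2 miR-122 sensor plasmid; renilla luciferase signal reporting endogenous miR-122 activity after 48 h compound exposure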
[2] = HEK293T cytotoxicity, dose response, cytotoxicity control for miR-122 modulator project, cell-based, activator set, cherry-pick (AID 720690); format: functional;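 note: HEK293T human cells scored for general mammalian cytotoxicity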
[3] = target: T1, Zinc finger protein mex-5 (Caenorhabditis elegans, UniProt Q9XUB2); experiment: MEX-5/TCR-2 RNA interaction inhibitors, dose response, biochemical, C. elegans, fluorescence polarization (AID 1960)
T1 sequence (Q9XUB2 whole entry): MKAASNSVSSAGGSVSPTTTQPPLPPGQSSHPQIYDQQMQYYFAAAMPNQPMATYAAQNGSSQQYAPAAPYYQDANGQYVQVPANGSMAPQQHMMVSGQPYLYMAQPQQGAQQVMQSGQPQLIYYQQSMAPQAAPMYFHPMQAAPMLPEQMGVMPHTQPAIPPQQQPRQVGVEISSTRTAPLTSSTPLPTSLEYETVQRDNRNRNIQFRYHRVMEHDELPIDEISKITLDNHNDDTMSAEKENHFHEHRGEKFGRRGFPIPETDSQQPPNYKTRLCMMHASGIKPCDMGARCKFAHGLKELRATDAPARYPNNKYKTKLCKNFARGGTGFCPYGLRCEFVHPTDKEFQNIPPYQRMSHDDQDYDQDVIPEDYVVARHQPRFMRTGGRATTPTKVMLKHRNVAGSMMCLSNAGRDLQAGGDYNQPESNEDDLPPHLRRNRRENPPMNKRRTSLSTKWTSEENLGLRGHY

[4] = target: T2, RNA-binding protein pos-1 (Caenorhabditis elegans, UniProt G5EF15); experiment: inhibitors of POS-1/mex-3 RNA binding, dose response, biochemical, fluorescence polarization (AID 1964);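 note: purified POS-1 fused to maltose binding protein made in E. coli; potency of compounds blocking POS-1 binding to fluorescent RNA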
T2 sequence (G5EF15 whole entry): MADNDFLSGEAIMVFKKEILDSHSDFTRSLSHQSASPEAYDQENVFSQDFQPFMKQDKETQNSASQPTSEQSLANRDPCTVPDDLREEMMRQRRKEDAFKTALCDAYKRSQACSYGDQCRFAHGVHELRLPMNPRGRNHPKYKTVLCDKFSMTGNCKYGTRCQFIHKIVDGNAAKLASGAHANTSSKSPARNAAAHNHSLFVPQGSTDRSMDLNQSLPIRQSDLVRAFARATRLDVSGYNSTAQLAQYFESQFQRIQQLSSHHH

[5] = target: G-protein coupled receptor 55 (Homo sapiens, UniProt Q9Y2T6); experiment: GPR55 agonists via beta-arrestin recruitment, primary screen, imaging, U2OS cells, beta-arrestin-GFP redistribution (AID 1961); format: functional
[6] = target: T3, Heat shock factor protein 1 (Mus musculus, UniProt P38532); experiment: inhibition of MG132-induced HSE-luciferase signal, confirmation, cell-based, NIH3T3, luminescence, dose retest (AID 2382); format: functional;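 note: NIH3T3 fibroblasts with HSF1-driven luciferase reporter stressed by proteasome inhibitor MG132; luminescence from HSF1-driven luciferase expression after 8 hours of MG132 stress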
T3 sequence (P38532 whole entry): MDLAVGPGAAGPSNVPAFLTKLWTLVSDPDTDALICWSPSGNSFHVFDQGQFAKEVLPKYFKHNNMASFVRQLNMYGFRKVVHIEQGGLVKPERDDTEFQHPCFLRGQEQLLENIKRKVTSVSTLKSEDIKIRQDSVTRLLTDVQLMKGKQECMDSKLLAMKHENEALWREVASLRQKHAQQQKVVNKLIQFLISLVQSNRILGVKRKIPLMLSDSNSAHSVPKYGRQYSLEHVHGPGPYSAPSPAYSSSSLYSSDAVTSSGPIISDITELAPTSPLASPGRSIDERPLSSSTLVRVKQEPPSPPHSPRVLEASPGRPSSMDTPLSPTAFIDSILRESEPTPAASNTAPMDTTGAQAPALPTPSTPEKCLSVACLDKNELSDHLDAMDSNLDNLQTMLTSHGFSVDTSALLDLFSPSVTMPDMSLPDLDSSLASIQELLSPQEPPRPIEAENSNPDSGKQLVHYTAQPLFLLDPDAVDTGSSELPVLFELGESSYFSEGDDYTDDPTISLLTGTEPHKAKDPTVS

[7] = Luminescence Cell-Based Dose Retest to Confirm Inhibitors of Cancer Stem Cells. [Related pubchem assays (depositor defined):AID2717, AID2721]; format: functional; details: Homo sapiens
[8] = HEK293T cytotoxicity, dose response, cytotoxicity control for miR-122 modulator project, cell-based, inhibitor set, cherry-pick, set 2 (AID 720697); format: functional
[9] = target: T4, RNA-editing ligase 1, mitochondrial (Trypanosoma brucei brucei, UniProt P86926); experiment: TbREL1 ligase inhibitors, dose response, biochemical, fluorescence, Trypanosoma brucei (AID 1117295); format: functional
T4 sequence (P86926 whole entry): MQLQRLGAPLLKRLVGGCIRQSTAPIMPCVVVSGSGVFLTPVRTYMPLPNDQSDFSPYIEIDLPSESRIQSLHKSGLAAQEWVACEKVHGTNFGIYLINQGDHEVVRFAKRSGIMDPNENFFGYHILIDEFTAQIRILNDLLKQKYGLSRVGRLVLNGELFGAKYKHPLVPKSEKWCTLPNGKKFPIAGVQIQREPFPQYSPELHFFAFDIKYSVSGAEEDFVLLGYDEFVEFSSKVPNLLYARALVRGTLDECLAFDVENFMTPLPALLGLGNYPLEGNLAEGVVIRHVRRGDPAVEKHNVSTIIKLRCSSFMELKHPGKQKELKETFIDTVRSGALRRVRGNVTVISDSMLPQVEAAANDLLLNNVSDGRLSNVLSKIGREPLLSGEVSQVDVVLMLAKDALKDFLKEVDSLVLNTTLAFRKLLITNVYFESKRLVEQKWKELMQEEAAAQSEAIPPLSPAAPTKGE

[10] = tested on: HeLa; experiment: HeLa cell cytotoxicity, dose response, cytotoxicity control, ATP luminescence, cherry-pick samples (AID 687004); format: functional, cell-based; details: Homo sapiens
[11] = target: T5, Methionyl-tRNA synthetase, putative (Trypanosoma brucei brucei, UniProt Q38C91); format: functional, Trypanosoma brucei brucei strain 927/4 GUTat10.1
T5 sequence (Q38C91 whole entry): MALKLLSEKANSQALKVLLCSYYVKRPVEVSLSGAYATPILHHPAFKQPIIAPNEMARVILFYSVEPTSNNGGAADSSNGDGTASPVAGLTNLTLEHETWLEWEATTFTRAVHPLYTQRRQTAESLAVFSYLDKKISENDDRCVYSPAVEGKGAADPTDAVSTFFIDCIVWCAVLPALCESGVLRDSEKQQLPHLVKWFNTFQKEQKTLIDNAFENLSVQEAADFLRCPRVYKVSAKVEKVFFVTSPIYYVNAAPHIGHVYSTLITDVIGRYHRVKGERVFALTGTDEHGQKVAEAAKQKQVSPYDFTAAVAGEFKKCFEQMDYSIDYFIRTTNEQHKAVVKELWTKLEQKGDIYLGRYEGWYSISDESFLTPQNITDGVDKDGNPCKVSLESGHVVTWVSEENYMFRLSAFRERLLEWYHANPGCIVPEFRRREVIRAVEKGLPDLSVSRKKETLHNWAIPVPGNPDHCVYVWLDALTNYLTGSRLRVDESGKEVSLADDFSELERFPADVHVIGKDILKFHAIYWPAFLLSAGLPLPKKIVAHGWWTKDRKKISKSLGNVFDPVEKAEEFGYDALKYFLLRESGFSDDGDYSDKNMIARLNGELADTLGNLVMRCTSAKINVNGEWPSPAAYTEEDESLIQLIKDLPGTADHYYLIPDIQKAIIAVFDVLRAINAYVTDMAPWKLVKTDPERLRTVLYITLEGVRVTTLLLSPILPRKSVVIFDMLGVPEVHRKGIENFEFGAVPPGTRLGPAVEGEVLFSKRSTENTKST

[12] = Counterscreen for inhibitors of Trypanosoma brucei methionyl tRNA synthetase (MetRS): Luminescence-based cell-based high throughput dose response assay to identify compounds that are cytotoxic to Jurkat human T lymphocyte cells.; format: functional
[13] = target: T5, Methionyl-tRNA synthetase, putative; format: functional, Trypanosoma brucei brucei strain 927/4 GUTat10.1; remark: listed apart in the source
[14] = HepG2 cell cytotoxicity, dose response, cytotoxicity control, ATP luminescence, cherry-pick, set 6 (AID 1053125); format: functional, cell-based
[15] = cells; details: A549
[16] = cells; details: HEK293
[17] = HeLa cell cytotoxicity, dose response, cytotoxicity control, CellTiter-Glo luminescence, dry powder, set 2 (AID 720593); format: functional, cell-based
[18] = Late stage assay provider results from the probe development effort to identify inhibitors of the Plasmodium falciparum M17 Leucine Aminopeptidase (M17LAP): radiolabel-based cell-based dose response assay to identify compounds that inhibit P. falciparum growth in RBCs Set 2.; format: functional

Sequence of G-protein coupled receptor 55 (Q9Y2T6 whole entry): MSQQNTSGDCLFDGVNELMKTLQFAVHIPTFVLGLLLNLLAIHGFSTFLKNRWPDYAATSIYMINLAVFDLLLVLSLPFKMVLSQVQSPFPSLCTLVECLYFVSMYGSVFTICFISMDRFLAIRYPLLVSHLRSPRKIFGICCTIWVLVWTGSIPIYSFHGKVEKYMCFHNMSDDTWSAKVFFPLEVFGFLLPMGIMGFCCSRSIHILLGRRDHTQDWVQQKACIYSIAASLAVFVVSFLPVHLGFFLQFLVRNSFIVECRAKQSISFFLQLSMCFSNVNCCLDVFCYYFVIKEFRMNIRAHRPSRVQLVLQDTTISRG

COc1cc2c(cc1OC)C(c1ccc(-c3ccc(Cl)c(Cl)c3)o1)=NCC2
AC50 [1]: 25.7 µM (active)
AC50 [2]: 9.82 µM (active)
EC50 [3]: > 300 µM (not active)
EC50 [4]: > 300 µM (inconclusive)
EC50 [5]: > 32 µM (inactive)
EC50 [6]: > 195 µM (not active)
AC50 [7]: 4.34 µM (active)
AC50 [8]: 8.91 µM (active)
IC50 [9]: 35.8 µM (inactive)

C(=Nn1cnnc1)c1ccc2c(c1)CCC2
AC50 [10]: 28.2 µM (active)

COC(=O)c1sc(-c2ccc(Cl)cc2)cc1NC(=O)COCC(=O)O
IC50 [11]: 18.7 µM (inactive)
IC50 [12]: 83.2 µM (inactive)
IC50 [13]: 13.8 µM (inactive)

N#CC1=C(N)Oc2cc(N)ccc2C1c1ccc(F)cc1F (stereo not drawn)
AC50 [14]: 45.3 µM (active)
AC50 [15]: 31.8 µM (active)
AC50 [16]: > 52 µM (inactive)

O=C(Nc1nc(-c2ccccn2)cs1)c1ccc(S(=O)(=O)N2CCOCC2)cc1
AC50 [17]: 41.1 µM (active)

CCCCOc1ccc(CC(=O)N(C)O)cc1
IC50 [18]: 15 µM (inactive)
